Experimental data: US9296687B2, “Modulators of HSP70/DnaK function and methods of use thereof” (The Trustees of the University of Pennsylvania, priority 2008, dated 2016)

Assays:
MiaPaCa2 cells = test: Pulse-chase of newly synthesized proteins; type: cell-based, human; conditions: 20 μM, 3 h chase
Method: FIG. 13. Cycloheximide Reduces PES-Induced Cytoplasmic Vacuolization. (A) Representative phase-contrast images of indicated tumor cell lines pretreated with DMSO or 1 μg/ml of cycloheximide (CHX) for 1 h, followed by the addition of 20 μM PES for 23 h. (B) The molecular chaperone HSP70 has been implicated in promoting proper folding of nascent polypeptides. […] Briefly, MiaPaCa2 cells were incubated in methionine/cysteine starvation medium for 30 min before adding [^35S]methionine/cysteine and DMSO or [^35S]methionine/cysteine and 20 μM PES, as indicated, to pulse for 1 h. Following the pulse, cells were immediately chased by complete medium for 0, 0.5, or 3 h, either in the presence of DMSO or 20 μM PES, as indicated. Cells were harvested at indicated time points, lysed in 1% NP40-containing buffer, and fractionated into detergent-soluble and detergent-insoluble preparations.
The cells were seeded at ˜50% confluency in 10 ml of DMEM/10% FBS/1× Pen-Strep using 100 mm dish. Next day, the cells were washed extensively in PBS and starved in “methionine/cysteine-free DMEM” (Invitrogen SKU#21013-024) with 5% dialyzed FBS and 1× Pen/Strep for 30 min. Either [^35S] Methionine/Cysteine (500 μCi) and DMSO or [^35S] Methionine/Cysteine (500 μCi) and 20 μM PES were added to the cells for 1 h. The cells were washed extensively to remove [^35S] […]

EGFR, HER2/ErbB2, AKT = test: Western blot of HSP70/HSP90 client proteins in detergent-soluble and detergent-insoluble fractions; type: cell-based, human
Method: FIG. 17. PES impairs the proteasome system. (A) Cell-based 20S proteasome activity assay of H1299 or A875 human tumor cells treated with DMSO, 20 μM PES, 100 nM Velcade (proteasome inhibitor), 1 μM 17-AAG (HSP90 inhibitor), 5 μM CQ (lysosome inhibitor), or 20S proteasome inhibitor epigallocatechin gallate (EGCG). Each graphical representation indicates the mean±SD of at least three independent cultures relative to control (DMSO-treated) cells. (B) Cell extracts from SKBR3 human breast carcinoma cells, treated either with 20 μM PES or 1 μM 17-AAG for 24 h, were immunoprecipitated (IP) using anti-HSP70 or anti-HSP90 antibody. […] MTT assays of MCF7 human breast carcinoma cells pretreated with DMSO, or 5 μM PES for 1 h, followed by the addition of indicated amount of 17-AAG for 47 h. The results represent the mean±SD of at least three independent analysis of cultures relative to control (DMSO-treated) cells. (D and E) H1299 cells (D) or SKBR3 cells (E) were treated with DMSO, 20 μM PES, 17-AAG, or 17-AAG plus bortezomib (Velcade) as indicated; harvested in 1% NP-40 containing lysis buffer; fractionated into detergent-soluble and detergent-insoluble preparations; and assayed by western blot.
FIG. 18. Accumulation of HSP90 client proteins in the protein detergent-insoluble fraction following PES. (A) SKOV3 cells were treated with DMSO, 10 μM PES, or 20 μM PES for 24 h. Note the marked accumulation of EGFR, HER2/ErbB2, and AKT in the detergent-insoluble fraction following 20 μM PES treatment. (B and C) SKOV3 (B) or SKBR3 (C) cells were treated with DMSO, 20 μM PES, or 1 μM 17-AAG, as indicated, for 24 h. Cells were harvested in 1% NP-40 containing lysis buffer, fractionated into detergent-soluble and detergent-insoluble preparations, and assayed by western blot for the proteins indicated.
The HSP70 and HSC70 proteins bind to exposed hydrophobic regions of nascent-, translocating-, misfolded- or partially unfolded-proteins. These ATP-dependent molecular chaperones act in multi-protein complexes in conjunction with one or more regulatory co-chaperones to carry out multiple cellular functions. […] This is illustrated for H1299 cells treated with 10 or 20 μM PES for 24 h. […] This correlates with a reduced abundance of complexes containing HSP70, or HSC70, together with client proteins or co-chaperones (FIGS. 19A and 19B). […] However, since HSP70/HSC70 act as critical co-chaperones for HSP90, for example in client protein recruitment, PES-mediated alteration in the function of the 70-kDa molecular chaperones could be reflected in an altered behavior or expression of many client proteins. To test this idea, we examined the expression of a few well-established HSP90 client proteins, including the transmembrane tyrosine kinase receptors EGFR and HER2/ERBB2, and the downstream signaling factor AKT. These proteins are overexpressed, or aberrantly expressed, in a variety of human tumors, and have been implicated in cancer etiology and pathology. As a control for these studies, we compared the effects of PES to that of the well-established HSP90 inhibitor, 17-allylamino-17-demethoxygeldanamycin (17-AAG). 17-AAG interacts with the N-terminal region of HSP90 and inhibits its ATPase activity; this disrupts interactions of HSP90 with client proteins and leads to client-protein degradation via the ubiquitin-proteasome pathway (Whitesell, et al. 2005; Neckers, et al. 2007). To examine the expression of some HSP70/HSP90 clients, we used western blot analysis of detergent-soluble (clarified) whole cell extracts.

20S proteasome = test: Cell-based 20S proteasome activity assay; parameters: species or system human; conditions: H1299 or A875 cells; PES 20 μM, 17-AAG 1 μM, CQ 5 μM

For NS(=O)(=O)C#Cc1ccccc1 [PES, 2-Phenylethynesulfonamide], which “newly-synthesized proteins in the detergent-insoluble fraction” value (MiaPaCa2 cells) is on record?
Its value is “increase in the newly-synthesized proteins in the detergent-insoluble fraction”.

What about the “EGFR, HER2/ErbB2 and AKT in the detergent-insoluble fraction” value (EGFR, HER2/ErbB2, AKT; 20 μM, 24 h) of the same molecule?
The value was “increased abundance of EGFR, HER2/ErbB2, and AKT in the detergent-insoluble fraction”.

What about the “expression of integrin β1 and CHIP” value (EGFR, HER2/ErbB2, AKT; H1299 cells, 20 μM, 24 h) of the same molecule?
The value was “lower expression levels”.

What about the “overall cellular abundance of EGFR, HER2/ErbB2 and AKT” value (EGFR, HER2/ErbB2, AKT; SKBR3 cells, detergent-soluble extracts, 24 h) of the same molecule?
Its value is “reduction in the overall cellular abundance”.

What about the “other cellular proteins in the detergent-insoluble fraction” value (EGFR, HER2/ErbB2, AKT; SKBR3 or SKOV3 cells) of the same molecule?
The value was “many of the proteins examined accumulate in the detergent-insoluble fraction”.

What about the “activity of the 20S proteasome” value (20S proteasome) of the same molecule?
Its value is “impairs the activity of the 20S proteasome”.
